Patent US20170355705A1 (GlaxoSmithKline Intellectual Property (No.2) Limited, priority 2014, published 2017)

Target: T1, SIRT1 (Homo sapiens, UniProt Q96EB6)
T1 sequence (Q96EB6 1-747): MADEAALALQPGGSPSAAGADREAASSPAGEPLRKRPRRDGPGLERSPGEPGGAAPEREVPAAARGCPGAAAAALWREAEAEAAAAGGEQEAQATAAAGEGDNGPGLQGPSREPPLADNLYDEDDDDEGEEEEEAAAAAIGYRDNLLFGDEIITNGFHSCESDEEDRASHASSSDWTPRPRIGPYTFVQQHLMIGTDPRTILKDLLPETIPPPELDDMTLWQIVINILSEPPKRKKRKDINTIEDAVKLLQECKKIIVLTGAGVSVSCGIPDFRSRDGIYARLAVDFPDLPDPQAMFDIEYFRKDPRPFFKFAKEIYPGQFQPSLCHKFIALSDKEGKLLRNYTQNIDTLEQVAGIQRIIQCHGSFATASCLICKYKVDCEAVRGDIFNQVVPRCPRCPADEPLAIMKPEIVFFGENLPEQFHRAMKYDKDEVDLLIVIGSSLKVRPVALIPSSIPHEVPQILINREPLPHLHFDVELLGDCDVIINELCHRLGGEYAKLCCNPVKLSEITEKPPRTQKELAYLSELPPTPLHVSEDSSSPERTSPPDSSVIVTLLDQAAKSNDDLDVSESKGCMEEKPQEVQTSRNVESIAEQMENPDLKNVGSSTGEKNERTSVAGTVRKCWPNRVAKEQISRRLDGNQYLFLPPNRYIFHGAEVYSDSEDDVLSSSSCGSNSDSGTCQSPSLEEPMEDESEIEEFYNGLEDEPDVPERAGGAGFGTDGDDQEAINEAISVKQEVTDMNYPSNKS
Test: Trp mass spectrometry assay of SIRT1 activity (EC1.5, percent maximum activation)
Type: biochemical
Conditions: Trp mass spectrometry assay; for TRP Activity (EC1.5): EC1.5 = concentration giving 150% activation of SIRT1
Description: Mass spectrometry based assays were used to identify modulators of SIRT1 activity. […] The peptide was labeled with the fluorophore 5TMR (excitation 540 nm/emission 580 nm) at the C-terminus. The sequence of the peptide substrate was based on p53 with several modifications. In addition, the methionine residue naturally present in the sequence was replaced with the norleucine because the methionine may be susceptible to oxidation during synthesis and purification.
The Trp mass spectrometry assay was conducted as follows. […] The SIRT1 protein was obtained by cloning the SirT1 gene into a T7-promoter containing vector, which was then expressed in BL21(DE3) bacterial cells and purified as described in further detail below. Test compound was added at varying concentrations to this reaction mixture and the resulting reactions were monitored. After the 25 minute incubation with SIRT1, 10 μL of 10% formic acid was added to stop the reaction. The resulting reactions were sealed and frozen for later mass spec analysis. The relative SIRT1 activity was then determined by measuring the amount of O-acetyl-ADP-ribose (OAADPR) formed (or, alternatively, the amount of deacetylated Trp peptide generated) by the NAD-dependent sirtuin deacetylation reaction in the presence of varying concentrations of the test compound versus control reactions lacking the test compound. The degree to which the test agent activated deacetylation by SIRT1 was expressed as EC1.5 (i.e., the concentration of compound required to increase SIRT1 activity by 50% over the control lacking test compound), and Percent Maximum Activation (i.e., the maximum activity relative to control (100%) obtained for the test compound).
This time point was the same as that used for test compounds and, within the linear range, the endpoint represents a change in velocity.
For the above assay, SIRT1 protein was expressed and purified as follows. The SirT1 gene was cloned into a T7-promoter containing vector and transformed into BL21(DE3). The protein was expressed by induction with 1 mM IPTG as an N-terminal His-tag fusion protein at 18° C. overnight and harvested at 30,000×g. Cells were lysed with lysozyme in lysis buffer (50 mM Tris-HCl, 2 mM Tris[2-carboxyethyl]phosphine (TCEP), 10 μM ZnCl2, 200 mM NaCl) and further treated with sonication for 10 min for complete lysis. The protein was purified over a Ni-NTA column (Amersham) and fractions containing pure protein were pooled, concentrated and run over a sizing column (Sephadex S200 26/60 global). The peak containing soluble protein was collected and run on an Ion-exchange column (MonoQ). Gradient elution (200 mM-500 mM NaCl) yielded pure protein. This protein was concentrated and dialyzed against dialysis buffer (20 mM Tris-HCl, 2 mM TCEP) overnight. The protein was aliquoted and frozen at −80° C. until further use.
“NT” means not tested; “ND” means not determinable.

[1] = percent maximum activation of SIRT1
[2] = 0.5 μM peptide substrate, 120 μM βNAD+, 10 nM SIRT1, 25 minutes at 25° C.

Row | TRP Activity (EC1.5) | TRP MAX RESP (percent maximum fold activation) [1] | TRP Activity (EC1.5, concentration of test compound that results in 150% activation of SIRT1) [2] | TRP MAX RESP (percent maximum fold activation) [2] | SMILES
1 | B (EC1.5 1-25 μM) | A (Fold activation ≧150%) | – | – | COc1cc(-c2ccc3c(n2)N(C(=O)Nc2cnccn2)[C@H]2CCN3C2)cc(C)n1 [Example 142, (4S)-7-(2-methoxy-6-methylpyridin-4-yl)-N-(pyrazin-2-yl)-3,4-dihydro-1,4-methanopyrido[2,3-b][1,4]diazepine-5(2H)-carboxamide]
2 | A (EC1.5<1 μM) | A (Fold activation ≧150%) | – | – | Cl.O=C(Nc1ccnc(OC[C@H](O)CO)c1)N1c2nc(-c3cccc(C(F)(F)F)c3)c(Cl)cc2N2CC[C@H]1C2 [Example 60, (4S)-8-chloro-N-(2-((R)-2,3-dihydroxypropoxy)pyridin-4-yl)-7-(3-(trifluoromethyl)phenyl)-3,4-dihydro-1,4-methanopyrido[2,3-b][1,4]diazepine-5(2H)-carboxamide, Hydrochloride]
3 | B (EC1.5 1-25 μM) | A (Fold activation ≧150%) | – | – | Cc1cc(-c2ccc3c(n2)N(C(=O)NC2CCC2)[C@H]2CCN3C2)ccn1 [Example 183, (4S)-N-cyclobutyl-7-(2-methylpyridin-4-yl)-3,4-dihydro-1,4-methanopyrido[2,3-b][1,4]diazepine-5(2H)-carboxamide]
4 | B (EC1.5 1-25 μM) | A (Fold activation ≧150%) | – | – | Cc1ncc(-c2ccc3c(n2)N(C(=O)Nc2cnccn2)[C@H]2CCN3C2)o1 [Example 162, (4S)-7-(2-methyloxazol-5-yl)-N-(pyrazin-2-yl)-3,4-dihydro-1,4-methanopyrido[2,3-b][1,4]diazepine-5(2H)-carboxamide]
5 | B (EC1.5 1-25 μM) | A (Fold activation ≧150%) | – | – | Cc1cc(-c2nc3c(cc2Cl)N2CC[C@@H](C2)N3C(=O)Nc2cncc(OC[C@@H](O)CO)c2)ccn1 [Example 110, (4S)-8-chloro-N-(5-((S)-2,3-dihydroxypropoxy)pyridin-3-yl)-7-(2-methylpyridin-4-yl)-3,4-dihydro-1,4-methanopyrido[2,3-b][1,4]diazepine-5(2H)-carboxamide]
6 | B (EC1.5 1-25 μM) | A (Fold activation ≧150%) | – | – | COc1ncc(-c2nc3c(cc2Cl)N2CC[C@@H](C2)N3C(=O)Nc2ccnc(OC[C@@H](O)CO)c2)cc1C(F)(F)F [Example 99, (4S)-8-chloro-N-(2-((S)-2,3-dihydroxypropoxy)pyridin-4-yl)-7-(6-methoxy-5-(trifluoromethyl)pyridin-3-yl)-3,4-dihydro-1,4-methanopyrido[2,3-b][1,4]diazepine-5(2H)-carboxamide]
7 | A (EC1.5<1 μM) | A (Fold activation ≧150%) | – | – | O=C(Nc1cccc(OC[C@H](O)CO)n1)N1c2nc(-c3cccc(C(F)(F)F)c3)c(Cl)cc2N2CC[C@H]1C2 [Example 56, (4S)-8-chloro-N-(6-((R)-2,3-dihydroxypropoxy)pyridin-2-yl)-7-(3-(trifluoromethyl)phenyl)-3,4-dihydro-1,4-methanopyrido[2,3-b][1,4]diazepine-5(2H)-carboxamide]
8 | B (EC1.5 1-25 μM) | A (Fold activation ≧150%) | – | – | O=C(Nc1ccccn1)N1c2nc(N3CCC[C@H]3C(F)(F)F)ccc2N2CC[C@H]1C2 [Example 120, (4S)-N-(pyridin-2-yl)-7-((S)-2-(trifluoromethyl)pyrrolidin-1-yl)-3,4-dihydro-1,4-methanopyrido[2,3-b][1,4]diazepine-5(2H)-carboxamide]
9 | – | – | – | A (Fold activation ≧150%) | Cc1nn(C)cc1-c1ccnc(NC(=O)N2c3nc(-c4ccnc(C(F)(F)F)c4)ccc3N3CC[C@H]2C3)c1 [Example 324]
10 | B (EC1.5 1-25 μM) | A (Fold activation ≧150%) | – | – | Cc1cncc(NC(=O)N2c3nc(-c4ccnc(C)c4)ccc3N3CC[C@H]2C3)c1 [Example 194, (4S)-N-(5-methylpyridin-3-yl)-7-(2-methylpyridin-4-yl)-3,4-dihydro-1,4-methanopyrido[2,3-b][1,4]diazepine-5(2H)-carboxamide]
11 | A (EC1.5<1 μM) | A (Fold activation ≧150%) | – | – | Cl.O=C(Nc1cncc(OC[C@H](O)CO)n1)N1c2nc(-c3cccc(C(F)(F)F)c3)c(Cl)cc2N2CC[C@H]1C2 [Example 62, (4S)-8-chloro-N-(6-((R)-2,3-dihydroxypropoxy)pyrazin-2-yl)-7-(3-(trifluoromethyl)phenyl)-3,4-dihydro-1,4-methanopyrido[2,3-b][1,4]diazepine-5(2H)-carboxamide, Hydrochloride]
12 | B (EC1.5 1-25 μM) | A (Fold activation ≧150%) | – | – | Cc1cc(-c2ccc3c(n2)N(C(=O)Nc2cccc4nccnc24)[C@H]2CCN3C2)ccn1 [Example 131, (4S)-7-(2-methylpyridin-4-yl)-N-(quinoxalin-5-yl)-3,4-dihydro-1,4-methanopyrido[2,3-b][1,4]diazepine-5(2H)-carboxamide]
13 | – | – | B (EC1.5 1-25 μM) | A (Fold activation ≧150%) | O=C(Nc1cnccn1)N1c2nc(-c3ccc(C(F)(F)F)nc3)ccc2N2CC[C@H]1C2 [Example 208, (4S)-N-(pyrazin-2-yl)-7-(6-(trifluoromethyl)pyridin-3-yl)-3,4-dihydro-1,4-methanopyrido[2,3-b][1,4]diazepine-5(2H)-carboxamide]
14 | – | – | B (EC1.5 1-25 μM) | A (Fold activation ≧150%) | Cc1cc(C)c(-c2ccc3c(n2)N(C(=O)Nc2cccnc2)[C@H]2CCN3C2)cn1 [Example 236, (4S)-7-(4,6-dimethylpyridin-3-yl)-N-(pyridin-3-yl)-3,4-dihydro-1,4-methano pyrido[2,3-b][1,4]diazepine-5(2H)-carboxamide]
15 | – | – | – | A (Fold activation ≧150%) | Nc1ccc(-c2ccc3c(n2)N(C(=O)Nc2ccccn2)[C@H]2CCN3C2)cn1 [Example 299]
16 | – | – | A (EC1.5<1 μM) | A (Fold activation ≧150%) | O=C(Nc1cnccn1)N1c2nc(-c3ccnc(C(F)F)c3)ccc2N2CC[C@H]1C2 [Example 216, (4S)-7-(2-(difluoromethyl)pyridin-4-yl)-N-(pyrazin-2-yl)-3,4-dihydro-1,4-methanopyrido[2,3-b][1,4]diazepine-5(2H)-carboxamide]

Row | SMILES | TRP Activity (EC1.5) | TRP MAX RESP (percent maximum fold activation) [1] | TRP Activity (EC1.5, concentration of test compound that results in 150% activation of SIRT1) [2] | TRP MAX RESP (percent maximum fold activation) [2]
17 | Cc1ncc(-c2ccc3c(n2)N(C(=O)Nc2cnccn2)[C@H]2CCN3C2)s1 [Example 214, (4S)-7-(2-methylthiazol-5-yl)-N-(pyrazin-2-yl)-3,4-dihydro-1,4-methanopyrido[2,3-b][1,4]diazepine-5(2H)-carboxamide] | – | – | B (EC1.5 1-25 μM) | A (Fold activation ≧150%)
